Where “and” joins values, the source holds several entries; their conditions need not be identical. Identical values can stand only once.
System: A498 complex spheroids with HUVEC/MSC, growth
Test: Anticancer human tumor A498 cell line growth inhibition [AhR];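 also: seven day exposure starting three days after spheroid seeding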;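 as to viability, T/C: luminescence signal used as a surrogate for viable cells; luminescence viability scaled so 100% equals DMSO vehicle wells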
Conditions: for viability, T/C: stronger effect = lower value
Excerpt: Multicellular complex tumor spheroid response to aryl hydrocarbon receptor antagonists in combination with a variety of drugs and investigational agents in selected tumor cell lines
The current study was undertaken to assess response to aryl hydrocarbon receptor antagonists in combination with standard-of-care drugs and investigational agents in solid tumor complex spheroid models. Complex spheroids include a stromal component modeled by human endothelial cells (HUVEC) and fibroblasts modeled by human mesenchymal stem cells (MSCs). The concentration ranges selected for each drug and investigational agent were based upon clinically achievable concentrations if the clinical Cmax of the agent was known.
Compounds. The drugs and investigational agents: BAY 2416964 (NSC825713), GNF351 (NSC835774), CH-223191 (NSC835775), CPI-455 (NSC825282), aza-TdCyd (NSC777586), decitabine (NSC127716), belinostat (NSC758774), entinostat (NSC756642), pevonedistat (NSC761192), tazemetostat (NSC777109), talazoparib (NSC765396), olaparib (NSC753686), selinexor (NSC780203), nedisertib (M3814, NSC802822), bortezomib (NSC756655), venetoclax (NSC766270), doxorubicin (NSC123127), elimusertib (BAY189344, NSC800525), ceralasertib (AZD6738, NSC777638), TAK-243 (NSC785004), alisertib (NSC759677), etoposide (NSC141540), topotecan (NSC609699), eribulin (NSC707389), gemcitabine (NSC613327), carboplatin (NSC241240), cisplatin (NSC119875), and SN-38 (NSC673596) were obtained from the National Cancer Institute (NCI) Developmental Therapeutics Program Chemical Repository (32). The FDA-approved anticancer drug set is available from the Developmental Therapeutics Program at https://dtp.cancer.gov/organization/dscb/obtaining/available plates.htm. […] The stock solutions were prepared in dimethyl sulfoxide (DMSO, Sigma-Aldrich, St. Louis, MO, cat. D2650), except for the platinum compounds which were prepared in saline (Quality Biological, Gaithersburg, MD, cat. 114-055-101), at 800-fold the tested concentration and stored at -70 degrees C prior to their use. All drugs and investigational agents were tested over a range starting from a high concentration at or near the clinical Cmax and decreasing in half-log increments. If the clinical Cmax for an agent had not been determined, the highest concentration tested was 10 microM (Table 1).
Cell Culture. All cells were maintained in an incubator at 37 degrees C and 5% CO2 with 95% humidity. The PDC lines were cultured according to standard operating procedures established by the NCI PDMR (https://pdmr.cancer.gov). Briefly, all PDCs were thawed and cultured in Matrigel-coated flasks prepared with a working solution of 1X Ham's F-12 nutrient mix, without supplementation (Invitrogen, Waltham, MA, cat. 11765054), 100 U/mL penicillin-streptomycin (Invitrogen, cat. 15140122), and 2.5% Matrigel (Corning Inc., Corning, NY, cat. 354248) for the first three passages. All PDCs were cultured in complete DMEM/F-12 media containing advanced DMEM/F-12 (Invitrogen, cat. 12634028), 4.9% defined fetal bovine serum, heat inactivated (HyClone Laboratories Inc., Logan, UT, cat. SH30070.03HI), 389 ng/mL hydrocortisone (Sigma-Aldrich, cat. H4001), 9.7 ng/mL human EGF recombinant protein (Invitrogen, cat. PHG0313), 23.4 microg/mL adenine (Sigma-Aldrich, cat. A2786), 97.3 U/mL penicillin-streptomycin (Invitrogen, cat. 15140122), 1.9 mM L-glutamine (Invitrogen, cat. 25030081), and 9.7 microM Y-27632 dihydrochloride (Tocris Bioscience, Bristol, United Kingdom, cat. 1254). The PDCs were cultured in complete DMEM/F12 media without 10 microM Y-27632 dihydrochloride for at least two passages prior to the screen. The established cell lines NCI-H1341 and […] were cultured in DMEM/F-12, HEPES (Invitrogen, cat. 11330032), 5% defined fetal bovine serum (HyClone Laboratories Inc., cat. SH30070.03), ITS premix universal culture supplement [insulin (5 microg/mL), transferrin (5 microg/mL), and selenious acid (5 ng/mL)] […]

Nc1ccccc1NC(=O)c1ccc(CNC(=O)OCc2cccnc2)cc1
viability, T/C (compound 0.0316 µM): 83.7% and 98.2% and 88.8% | viability, T/C (compound 0.1 µM): 83.4% and 95.8% and 93.6% | viability, T/C (compound 0.316 µM): 88.2% and 84.4% and 77.7% | viability, T/C (compound 1 µM): 61.2% and 70.2% and 50.5% | viability, T/C (compound 3.16 µM): 21.5% and 29.6% and 23.1% | viability, T/C (compound 10 µM): 2.22% and 2% and 2.21% | IC50 (curve of compound): 1430 nM and 1740 nM and 1090 nM

O=C(C=Cn1cnc(-c2cc(C(F)(F)F)cc(C(F)(F)F)c2)n1)NNc1cnccn1 + CC(CO)NC(=O)c1cc(-c2ccc(Cl)cc2)nn(-c2cnn(C)c2)c1=O
IC50 (curve of first compound, second compound 0.1 µM): 58.5 nM | IC50 (curve of first compound, second compound 0.316 µM): 51.6 nM | IC50 (curve of first compound, second compound 1 µM): 45.8 nM | IC50 (curve of first compound, second compound 3.16 µM): 32.7 nM | IC50 (curve of first compound, second compound 10 µM): 9.75 nM | viability, T/C (second compound 0.1 µM, first compound 0.00949 µM): 72.7% | viability, T/C (second compound 0.1 µM, first compound 0.03 µM): 69% | viability, T/C (second compound 0.1 µM, first compound 0.0949 µM): 36.2% | viability, T/C (second compound 0.1 µM, first compound 0.3 µM): 23.2% | viability, T/C (second compound 0.1 µM, first compound 0.949 µM): 22.3% | viability, T/C (second compound 0.1 µM, first compound 3 µM): 17.8% | viability, T/C (second compound 0.316 µM, first compound 0.00949 µM): 74.8% | viability, T/C (second compound 0.316 µM, first compound 0.03 µM): 62.7% | viability, T/C (second compound 0.316 µM, first compound 0.0949 µM): 35.4% | viability, T/C (second compound 0.316 µM, first compound 0.3 µM): 23.1% | viability, T/C (second compound 0.316 µM, first compound 0.949 µM): 17.9% | viability, T/C (second compound 0.316 µM, first compound 3 µM): 14.7% | viability, T/C (second compound 1 µM, first compound 0.00949 µM): 67.2% | viability, T/C (second compound 1 µM, first compound 0.03 µM): 58.8% | viability, T/C (second compound 1 µM, first compound 0.0949 µM): 35.3% | viability, T/C (second compound 1 µM, first compound 0.3 µM): 23.1% | viability, T/C (second compound 1 µM, first compound 0.949 µM): 18.5% | viability, T/C (second compound 1 µM, first compound 3 µM): 16.7% | viability, T/C (second compound 3.16 µM, first compound 0.00949 µM): 61.3% | viability, T/C (second compound 3.16 µM, first compound 0.03 µM): 51.4% | viability, T/C (second compound 3.16 µM, first compound 0.0949 µM): 32.1% | viability, T/C (second compound 3.16 µM, first compound 0.3 µM): 20.7% | viability, T/C (second compound 3.16 µM, first compound 0.949 µM): 15.7% | viability, T/C (second compound 3.16 µM, first compound 3 µM): 18.4% | viability, T/C (second compound 10 µM, first compound 0.00949 µM): 49.9% | viability, T/C (second compound 10 µM, first compound 0.03 µM): 46.5% | viability, T/C (second compound 10 µM, first compound 0.0949 µM): 31.2% | viability, T/C (second compound 10 µM, first compound 0.3 µM): 20.9% | viability, T/C (second compound 10 µM, first compound 0.949 µM): 18.5% | viability, T/C (second compound 10 µM, first compound 3 µM): 17.4%

From PubChem BioAssay AID1919007 (Molecular Pharmacology Branch, DTP, NCI, 2023)
